Inconclusive results are not listed. Calls of active or inactive are those of the source.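 How the source made its calls: active means compounds lowering the luciferase signal with a fitted half-maximal dose at most twice their top valid dose (cut at about 30 µM in these data); inconclusive means flat fits with moderate signal loss, or poor fits; inactive means the rest.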
Test system: Clone20 osteoblast Shn3 3'UTR firefly luciferase, 24 h
Assay: Shn3 3'UTR reporter inhibitors, dose response, cell-based, Clone20 osteoblasts, luminescence, dry powder, set 2 (AID 743417)

SMILES	AC50
Nc1nc(N)c2cc(Sc3cccc(C(F)(F)F)c3)ccc2n1	4.87 µM
O=C(NCc1cccnc1)/C(=C\c1ccc(-c2ccc(Br)cc2)o1)S(=O)(=O)c1ccccc1	6.33 µM
CC(C)Cn1c(N)c(C(=O)CSc2ccc3c(c2)OCCO3)c(=O)n(C)c1=O	0.674 µM
CCOC(=O)C1CCCN(S(=O)(=O)c2ccc(S(=O)(=O)N3CCCC3)cc2)C1 (stereo not given)	0.821 µM
C=C1CC(COc2cc(=O)oc3ccccc23)(c2ccccc2)OC1=O (stereo not given)	3.93 µM
CCCCCn1c(N2CCN(c3cccc(Cl)c3)CC2)nc2c1c(=O)[nH]c(=O)n2C	21.8 µM
CCOc1ccc2nc(SC3CC(=O)N(c4ccc(C)cc4)C3=O)sc2c1 (stereo not given)	15.6 µM
O=[N+]([O-])c1cccnc1S(=O)(=O)c1ccccc1	4.79 µM
Cc1ccc(NC(=O)C2CCC(C(C)(C)C)CC2)cc1S(=O)(=O)N1CCOCC1 (stereo not given)	12.1 µM
Cn1c(/C=C/c2ccc(Cl)cc2Cl)c([N+](=O)[O-])c(=O)n(C)c1=O	6.87 µM
Cc1ccc(CNC(=O)CSc2c3c(nc4ccc(Cl)cc24)CCCC3)o1	5.98 µM
Cc1ccc(-n2ncc3c(N4CCN(c5ccc(F)cc5)CC4)ncnc32)c(C)c1	3.24 µM
c1ccc(CC2CCN(c3ncnc4sccc34)CC2)cc1	0.362 µM
CC(C)(C)NC(=O)NC(=O)CN1CCN(c2ccc(O)cc2)CC1	1.9 µM
O=C1/C(=C/c2ccccc2)C[C@@]2(O)[C@H]3Cc4ccc(O)c5c4[C@@]2(CCN3CC2CC2)C1O5 (stereo not given in full)	4.64 µM
CC1CN(S(=O)(=O)c2ccc(C(=O)Nc3nc(-c4cc5ccccc5o4)cs3)cc2)CC(C)O1 (stereo not given)	< 0.26 µM
O=C(Nc1nc2ccccc2s1)C1CCN(S(=O)(=O)c2cc([N+](=O)[O-])ccc2Cl)CC1	3.07 µM
Cc1ccc(CNC(=O)c2cc(-c3ccccc3C)nn2CC2CC(c3cccnc3)=NO2)cc1 (stereo not given)	> 70 µM (inactive)
Cc1c(C(C)C)c(=O)n(-c2ccc(S(=O)(=O)NCc3ccccc3)cc2)n1C	1.18 µM
CCCCn1c(-c2nonc2NC(=O)c2ccccc2Cl)nc2ccccc21	1.39 µM

SMILES	AC50
CSc1nnc(NC(=O)c2nc(S(=O)(=O)Cc3ccc(C)cc3)ncc2Cl)s1	3.18 µM
CC(C)C[C@H](N)c1nnc(S(=O)(=O)Cc2ccc(F)cc2)o1	9.02 µM
CCn1c(CNC(=O)c2cc(OC)c(OC)c(OC)c2)cc2cc(C)ccc21	2.52 µM
C=C(CN(C)C)C(=O)c1ccc(C)cc1C	0.77 µM
CCCCNc1c(-c2ccc(OC)c(SC3CCCCC3)c2)nc2ccc(C)cn12	3.68 µM
C/C1=C\[C@@H](C)C/C=C/[C@H]2[C@@H]3O[C@]3(C)[C@@H](C)[C@H]3[C@H](Cc4c[nH]c5ccccc45)NC(=O)[C@]32C(=O)/C=C/C(=O)[C@@H]1O	6.44 µM
Fc1ccc2[nH]c3c(N4CCSCC4)ncnc3c2c1	2.76 µM
CC(C)(C)C(=O)N1CCN(c2ccc(NC(=O)c3ccc([N+](=O)[O-])o3)cc2)CC1	2.45 µM
O=C(COC(=O)c1n[nH]c2ccccc12)Nc1ccc(S(=O)(=O)N2CCCC2)cc1	5.33 µM
C[C@@H]1C[C@@H]([C@H](O)CC2CC(=O)NC(=O)C2)C(=O)[C@@H](C)C1	0.345 µM
CCN(CC)S(=O)(=O)c1cccc(NC(=O)CNc2cccc(S(=O)(=O)N3CCCC3)c2)c1	0.317 µM
Oc1ccc(-c2n[nH]c(C(F)(F)F)c2-c2ccccc2)c(O)c1	0.283 µM
Cc1cc(CN2CCOCC2)c(O)c(C2(C)CCCCC2)c1	32.3 µM
Oc1ccc(-c2csc(Nc3cccc4ccccc34)n2)cc1O	1.58 µM
O=C(CSc1nnc(-c2ccc(Cl)cc2Cl)n1C1CCCCC1)N1CCCC1	> 70 µM (inactive)
COc1ccc(NC(=O)/C(Cl)=C(/Cl)S(=O)Cc2ccccc2)cn1 (stereo not given)	< 0.26 µM
CCOC(=O)c1sc(NC(=O)CCCn2nc([N+](=O)[O-])c(Cl)c2C)c(C(=O)OCC)c1C	6.34 µM
COc1ccc(C(=O)/C=C/C(=O)N(CC(=O)NCCC(C)C)Cc2cccs2)c(O)c1	3.49 µM
CCN(CC)S(=O)(=O)c1ccc(N(C)Cc2ccc(C(F)(F)F)cc2)nc1	5.85 µM
CCOC(=O)CS(=O)(=O)c1nc(-c2ccccc2)cc(C(F)(F)F)n1	3.42 µM

From PubChem BioAssay AID743417 (Broad Institute, 2014)
